Patent US8795746B2, “Therapeutic use of mucin glycans” (The Board of Trustees of the Leland Stanford Junior …, priority 2011, dated 2014)

How the values were obtained:
[1] = system: Bacteroides thetaiotaomicron (Bt); experiment: In vitro growth of Bt in minimal medium with the glycan as sole carbohydrate (OD600); format: cell-based; conditions: glycan 1.5% w/v as sole carbon source
Method: The transcriptome was analyzed near the midpoints of the two logarithmic growth phases in MM-HMO (n=2 biological replicates/growth phase, four datasets total). As a baseline for comparison, we used previously reported in vitro datasets of Bt grown in MM-glucose. […] Within these combined 253 genes (132 were commonly up regulated in both phases), 137 genes had ≧5-fold change in expression when compared to MM-glucose (see Table S1 for complete list of genes).
(§1) Bacterial Strains and Culture conditions. Type strains for Bacteroides species were used unless otherwise indicated. Bacteroides species were grown in tryptone-yeast extract-glucose (TYG) medium and minimal medium (MM) as described previously. Bif. infantis was grown in Man-Rogosa-Sharpe (MRS) medium (Oxoid LTD., Basingstoke, Hampshire, England) and minima medium consisting of modified MRS, which lacks glucose. […] OD600 was monitored using a BioTek PowerWave 340 plate reader (BioTek, Winoosky, Vt., United States) every 30 min, at 37° C. anaerobically (6% H2, 20% CO2, 74% N2).
Bacterial Strains and Culture Conditions. Type strains were used unless otherwise indicated. Bacteroides species were grown in tryptone-yeast extract-glucose (TYG) medium and minimal medium (MM). […] OD600 was monitored using a BioTek PowerWave 340 plate reader (BioTek, Winooski, Vt.) every 30 min, at 37_C anaerobically (6% H2, 20% CO2, 74% N2).

[2] = system: Bif. infantis ATCC15697; experiment: In vitro growth of Bif. infantis in minimal medium with the glycan as carbon source; format: cell-based, Bifidobacterium longum subsp. infantis; conditions: minimal medium (modified MRS without glucose) with the glycan
Method: We next queried whether the redundancy in machinery employed for mucin and HMO consumption in Bt is also found in Bifidobacterium species that are well-adapted to HMO use. Therefore, we grew a strain known to be proficient at HMO-use, Bif. infantis ATCC15697 in MM-O-PMG.
as §1
B. thetaiotaomicron and Bifidobacterium infantis Differentially Consume the Structurally Similar Mucin Glycans and HMO. […] We grew an HMO-consuming Bifidobacterium strain that is abundant in the microbiota of breast-fed infants, Bi, in purified porcine mucin glycans (MM-O-PMG) to elucidate its competence in mucin consumption. […]
Bacterial Strains and Culture Conditions. […] OD600 was monitored using a BioTek PowerWave 340 plate reader (BioTek, Winooski, Vt.) every 30 min, at 37_C anaerobically (6% H2, 20% CO2, 74% N2).

[3] = system: Bt and Bi fecal community; experiment: Competitive colonization of gnotobiotic mice biassociated with Bt and B. infantis, LNnT in the water; format: in vivo, germ-free Swiss-Webster mice
Method: Two groups of 6-week-old germ-free mice were fed a polysaccharide-deficient diet, forcing a reliance on host mucus glycans for carbon and energy. One group received LNnT supplementation in the water (1% w/v; average consumption of 75 mg of LNnT daily), the control group received plain water.
After one day of LNnT feeding, both groups were colonized with equivalent quantities of Bt and Bi (10^8 CFU each). At day 6 post-inoculation, the group receiving LNnT was switched to normal water; at day 15 post-inoculation, LNnT was readministered for 3 additional days. Total bacterial colonization density was determined by assessing the CFUs in feces over the course of the 18 day experiment. […] LNnT supplementation was withdrawn on day 6 and colonization density was determined on days 7, 8, 9, 12, and 15 post colonization (1, 2, 3, 6, and 9 days after removing LNnT from the water). […] At day 3 post withdrawal of LNnT, Bi representation was 3.9±0.2% compared to 41.5±6.4% just prior to withdrawal (p=0.006, day 6 versus day 9, n=4 mice). LNnT was reintroduced into the water on day 15, and bacterial colonization was monitored at days 16, 17, and 18 post colonization. Two days after LNnT reintroduction, Bi expanded from 0.5±0.5% at day 15 to 49.9±2% at day 17 (p=0.012, day 15 versus day 17, n=4 mice). By day 18, Bi represented 25.9±9.6% of the community in LNnT-fed mice, compared to 1.9±1.5% in the control group (p=0.014, n=4 mice) (FIG. 16C).
Competitive Colonization of Gnotobiotic Mouse. Germ-free Swiss-Webster mice were reared in gnotobiotic isolators and fed an autoclaved polysaccharide-deficient diet in accordance with A-PLAC, the Stanford IACUC. Mice were biassociated using oral gavage (10^8 CFU of each species). Subsequent community enumerations from mice were determined from freshly collected feces, by selective plating of serial dilutions in RCM agar and BHI-blood agar supplemented with gentamicin ([…]). Significant differences between sample groups were determined using Student's t test. Synthetic LNnT (Glycom A/S, Denmark) was purified by crystallization to a final purity of >99%. Characterization was performed using multiple methods, including NMR (1D and 2D) mass spectrometry, and HPLC.

[4] = system: B. fragilis; experiment: Sialic acid content determination in MM-HMO after B. fragilis growth (DMB derivatization, RP-HPLC); format: cell-based, Bacteroides fragilis
Method: Ten of the 21 genes in the HMO-specific B. fragilis response were distributed within two loci that are dedicated to sialic acid acquisition and catabolism (FIG. 6B).
Sialic acid content determination. B. fragilis culture supernatant was isolated after growth in MM-HMO and clarified by centrifugation and filtration. Sialic acid concentrations were determined by the Glycotechnology Core Facility UCSD (University of California, San Diego, Calif., United States). Briefly, sialic acids were released by acid hydrolysis at 80 C for 3 hours in 2M acetic acid, collected by ultra-filtration, and derivatized with DMB (1,2-diamino-4,5-methylenedioxybenzene). The resulting fluorescent sialic acids derivatives were analyzed by RP-HPLC with on-line fluorescence detection, and identification was based on standards run in parallel.
(§2) Sialic Acid Content Determination. Culture supernatant was isolated after growth in MM-HMO and clarified by centrifugation and filtration. Sialic acid concentrations were determined by the Glycotechnology Core Facility UCSD (University of California, San Diego, San Diego, Calif.), using the […] DMB labeling kit protocol (Prozyme, San Leandro, Calif.).

[5] = system: Bt; experiment: Sialic acid content determination in MM-HMO after Bt growth; format: cell-based, Bacteroides thetaiotaomicron
Method: Twelve of the 21 HMO-specific Bf genes were distributed within two loci that are dedicated to sialic acid acquisition and catabolism (FIG. 16B). […] To confirm that Bf does in fact consume sialic acids from HMOs, sialic acid content in the MM-HMO after growth was measured before and after acid hydrolysis using derivatization with 1,2-diamino-4,5-methylenedioxybenzene followed by reverse phase HPLC.
as §2

[6] = system: Bt VPI-5482 genes / PULs; experiment: Whole genome transcriptional profiling of Bt (GeneChip) relative to MM-glucose; format: cell-based, Bacteroides thetaiotaomicron; conditions: compared to MM-glucose
Method: We grew Bt in minimal medium (MM) containing HMO (1.5% w/v) as the sole carbohydrate to investigate if this strain consumes human milk glycans in vitro. […] Next, we defined the transcriptional response of Bt during HMO consumption using whole genome transcriptional profiling with a custom Bt VPI-5482 GeneChip that represent >98% of this organism's protein coding genes. The transcriptome was analyzed near the midpoints of the two logarithmic growth phases in MM-HMO (n=2 biological replicates/growth phase, four datasets total). As a baseline for comparison, we used previously reported in vitro datasets of Bt grown in MM-glucose.
We wished to identify which portion of the observed Bt transcriptional response in MM-HMO was due to the complex oligosaccharides versus simple core sugars, lactose and galactose. Therefore, we performed transcriptional profiling of Bt grown in MM-galactose and MM-lactose (n=2 mid-log phase datasets for each of these monophasic growths; see FIG. 8 for growth curves and sampling timepoints).
Whole Genome Transcriptional Profiling. […] GeneChip data from bacteria growth in different carbon sources were normalized using R program by RMA-MS and statistical significance for differential gene expression was determined using SAM [45]. […]

SMILES: CC(=O)N[C@H]1[C@H](O[C@H]2[C@@H](O)[C@@H](CO)O[C@@H](O[C@H]3[C@H](O)[C@@H](O)C(O)O[C@@H]3CO)[C@@H]2O)O[C@H](CO)[C@@H](O[C@@H]2O[C@H](CO)[C@H](O)[C@H](O)[C@H]2O)[C@@H]1O (mixture of isomers) [LNnT, lacto-N-neotetraose]
- growth of Bt [1]: did not
- growth of Bif. infantis [2]: grew efficiently reaching a high OD
- time for Bi to drop to levels similar to controls after removal of LNnT ([3]; LNnT withdrawn on day 6): ≤ 2 days
- Bi relative to Bt in fecal community ([3]; day 6, LNnT 1% w/v in water, polysaccharide-deficient diet): 41.5±6.4%
- Bi representation ([3]; day 9, day 3 post withdrawal of LNnT): 3.9±0.2%
- Bi representation ([3]; day 15, before LNnT reintroduction): 0.5±0.5%
- Bi representation ([3]; day 17, two days after LNnT reintroduction): 49.9±2%
- Bi share of the community ([3]; day 18, LNnT-fed mice): 25.9±9.6%

SMILES: CC(=O)N[C@H]1[C@H]([C@H](O)[C@H](O)CO)OC(O)(C(=O)O)C[C@@H]1O (stereo partly drawn) [Neu5Ac, N-acetylneuraminic acid]
- Neu5Ac content after B. fragilis growth [4]: completely depleted
- Neu5Ac use by Bt [5]: unable to catabolize it

SMILES: O=C[C@H](O)[C@@H](O)[C@@H](O)[C@H](O)CO [galactose]
- number of Bt genes up regulated at least 5-fold [6]: 40 genes

SMILES: OC[C@H]1O[C@@H](O[C@H]2[C@H](O)[C@@H](O)C(O)O[C@@H]2CO)[C@H](O)[C@@H](O)[C@H]1O (stereo partly drawn) [lactose]
- number of Bt genes up regulated at least 5-fold [6]: 34 genes
